Publication PMC1570497, “HIV-2 Protease resistance defined in yeast cells” (Retrovirology, 2006)
Residue numbers refer to the chain shown, from its start. Several values for one entry are separate records, joined by “and”; a condition that tells them apart may be missing. Identical values can stand only once.

Columns and labels:
[1] = test system: Protease from HIV-2ROD; parameters: method as in PMID 16464891, PMID 16327332; details: read-out: IC50 already reported in the literature; cited from earlier work
[2] = test system: HIV-2 K45R; parameters: method as in PMID 16464891; key: resistant (R); sensitive (S); details: cited from earlier work
[3] = biological target: T1, HIV-2ROD Protease (wild type) (Human immunodeficiency virus type 2 subtype A, UniProt P04584); assay: yeast growth rescue assay, HIV-2ROD Protease expressed in BY4741 yeast; assay type: cell-based; details: for Phenotype (transformed yeast) (% cell growth): galactose, wild type ROD Protease; for Phenotype (transformed yeast) (% cell growth) / IC50: 48 h; for IC50isolate/IC50ROD: ROD (reference); for IC50: ROD Protease
T1 construct: initiator Met (added ATG start codon) (N); expressed in transfected cells; host or cells: Saccharomyces cerevisiae BY4741, pRS316Gal1/10-HIV2PR (galactose-inducible)
T1 sequence (P04584 514-612 limits assumed): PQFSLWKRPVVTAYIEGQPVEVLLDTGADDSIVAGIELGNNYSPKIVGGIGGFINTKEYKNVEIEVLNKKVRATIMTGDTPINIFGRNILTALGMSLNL

[4] = biological target: HIV-2 Protease MRT-22 (Human immunodeficiency virus type 2, UniProt P04584, cells depend on it, form not given); assay: yeast growth rescue assay, Protease from infected individual; details: for Phenotype (transformed yeast) (% cell growth) / IC50: MRT-22 Protease; for IC50isolate/IC50ROD: MRT-22; for IC50: yeast
Chain of HIV-2 Protease MRT-22 (P04584 514-612 limits assumed, stated change not applied): as the sequence (P04584 514-612 limits assumed) above

[5] = biological target: T2, HIV-2ROD Protease L90M (Human immunodeficiency virus type 2 subtype A, UniProt P04584, L603M); assay: cell-based; assay type: cell-based; details: for IC50mutant/IC50ROD: L90M
T2 sequence (P04584 514-612 L603M): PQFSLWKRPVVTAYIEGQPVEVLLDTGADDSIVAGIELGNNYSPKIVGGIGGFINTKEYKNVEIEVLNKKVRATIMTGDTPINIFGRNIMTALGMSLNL

[6] = test system: HIV-2ROD wild type; parameters: method as in previously published data; key: resistant (R); sensitive (S); details: ref previously published data; cited from earlier work
[7] = biological target: HIV-2 Protease MRT-7 (Human immunodeficiency virus type 2, UniProt P04584, cells depend on it, form not given); assay: yeast growth rescue assay, Protease from infected individual; details: for Phenotype (transformed yeast) (% cell growth) / IC50: MRT-7 Protease; for IC50: yeast
Chain of HIV-2 Protease MRT-7 (P04584 514-612 limits assumed, change not shown): as the sequence (P04584 514-612 limits assumed) above

[8] = biological target: HIV-2 Protease MRT-20 (Human immunodeficiency virus type 2, UniProt P04584, cells depend on it, form not given); assay: as above; assay type: cell-based; details: for Phenotype (transformed yeast) (% cell growth) / IC50: MRT-20 Protease; for IC50isolate/IC50ROD: MRT-20; for IC50: yeast
Chain of HIV-2 Protease MRT-20 (P04584 514-612 limits assumed, stated change not applied): as the sequence (P04584 514-612 limits assumed) above

[9] = biological target: HIV-2 Protease MRT-8 (Human immunodeficiency virus 2, UniProt P04584, L603M, cells depend on it, form not given); assay: as above; details: for Phenotype (transformed yeast) (% cell growth) / IC50: MRT-8 Protease; for IC50: yeast
[10] = test system: HIV-2 V20A, I54M; parameters: method as in PMID 16464891; key: resistant (R); sensitive (S); details: cited from earlier work
[11] = biological target: HIV-2 Protease MRT-29 (Human immunodeficiency virus type 2, UniProt P04584, cells depend on it, form not given); assay: yeast growth rescue assay, Protease from infected individual; details: for Phenotype (transformed yeast) (% cell growth) / IC50: MRT-29 Protease; for IC50isolate/IC50ROD: MRT-29; for IC50: yeast
Chain of HIV-2 Protease MRT-29 (P04584 514-612 limits assumed, change not shown): as the sequence (P04584 514-612 limits assumed) above

[12] = biological target: T3, HIV-2ROD Protease (Human immunodeficiency virus type 2 subtype A, UniProt P04584); assay type: cell-based
T3 construct: initiator Met (added ATG start codon) (N); expressed in transfected cells; host or cells: Saccharomyces cerevisiae BY4741, pRS316Gal1/10-HIV2PR (galactose-inducible)
T3 sequence (P04584 514-612 limits assumed): as the sequence (P04584 514-612 limits assumed) above

[13] = biological target: HIV-2 Protease MRT-1 (Human immunodeficiency virus type 2, UniProt P04584, cells depend on it, form not given); assay: yeast growth rescue assay, Protease from infected individual; details: for Phenotype (transformed yeast) (% cell growth) / IC50: MRT-1 Protease; for IC50: yeast
Chain of HIV-2 Protease MRT-1 (P04584 514-612 limits assumed, change not shown): as the sequence (P04584 514-612 limits assumed) above

[14] = biological target: HIV-2 Protease MRT-25 (Human immunodeficiency virus type 2, UniProt P04584, cells depend on it, form not given); assay: as above; details: for Phenotype (transformed yeast) (% cell growth) / IC50: MRT-25 Protease; for IC50: yeast
Chain of HIV-2 Protease MRT-25 (P04584 514-612 limits assumed, stated change not applied): as the sequence (P04584 514-612 limits assumed) above

[15] = biological target: T4, HIV-2ROD Protease L99F (Human immunodeficiency virus type 2 subtype A, UniProt P04584, L612F); assay: cell-based; details: for IC50mutant/IC50ROD: L99F
T4 construct: contains a Phe codon at position 99 of the HIV-2 Protease, followed by a stop codon; initiator Met (start codon of primer Fwd) (N); expressed in transfected cells; host or cells: Saccharomyces cerevisiae BY4741, pRS316GAL1/10
T4 sequence (P04584 514-612 L612F): T2 sequence (P04584 514-612 L603M) with M90L, L99F

[16] = test system: HIV-2 M76V; parameters: key: resistant (R); sensitive (S); details: cited from earlier work

SMILES: Cc1cccc(C)c1OCC(=O)N[C@@H](Cc1ccccc1)[C@@H](O)C[C@H](Cc1ccccc1)NC(=O)[C@H](C(C)C)N1CCCNC1=O [LPV, Lopinavir]
- IC50 [1]: 0.027 µM
- Phenotype (virus production) [2]: R [9]
- Phenotype (transformed yeast) (% cell growth) ([3]; LPV at 150 μM): 91.5% and 91.5+/-1.2%
- IC50isolate/IC50ROD [3]: 1.00
- IC50 [3]: 16.6 ± 2.5 µM
- Phenotype (transformed yeast) (% cell growth) ([4]; LPV at 150 μM): 98.5+/-1.0%
- IC50isolate/IC50ROD [4]: 0.91
- IC50 [4]: 15.1 ± 4.3 µM
- IC50 [5]: 12.5 ± 8.1 µM
- IC50mutant/IC50ROD [5]: 0.75
- Phenotype (virus production) [6]: S
- Phenotype (transformed yeast) (% cell growth) ([7]; LPV at 150 μM): 100.0+/-4.7%
- IC50 [7]: 10.8 ± 5 µM
- Phenotype (transformed yeast) (% cell growth) ([8]; LPV at 150 μM): 71.5+/-1.2%
- IC50isolate/IC50ROD [8]: 1.40
- IC50 [8]: 23.2 ± 4.4 µM
- Phenotype (transformed yeast) (% cell growth) ([9]; LPV at 150 μM): 82.0+/-7.5%
- IC50 [9]: 12.5 ± 1.5 µM
- Phenotype (virus production) [10]: R [9]
- Phenotype (transformed yeast) (% cell growth) ([11]; LPV at 150 μM): 93.0+/-2.0%
- IC50isolate/IC50ROD [11]: 0.84
- IC50 [11]: 13.9 ± 5.5 µM
- growth in galactose ([12]; 60 μM LPV): grew in galactose
- Phenotype (transformed yeast) (% cell growth) ([13]; LPV at 150 μM): 50.0+/-3.0%
- IC50 [13]: 48 ± 3.2 µM
- Phenotype (transformed yeast) (% cell growth) ([14]; LPV at 150 μM): 100.0+/-2.0%
- IC50isolate/IC50ROD ([14]; MRT-25): 1.20
- IC50 [14]: 19.9 ± 4.6 µM
- IC50 [15]: 11.1 ± 3.1 µM
- IC50mutant/IC50ROD [15]: 0.67

SMILES: CC(C)(C)NC(=O)[C@@H]1C[C@@H]2CCCC[C@@H]2CN1C[C@@H](O)[C@H](Cc1ccccc1)NC(=O)[C@H](CC(N)=O)NC(=O)c1ccc2ccccc2n1 [SQV, Saquinavir]
- IC50 [1]: 0.011 µM
- Phenotype (virus production) [2]: R [9]
- IC50isolate/IC50ROD [3]: 1.00
- IC50 [3]: 150 ± 7.2 µM
- Phenotype (transformed yeast) (% cell growth) ([3]; SQV at 1mM): 75% and 75.0+/-7.0%
- IC50isolate/IC50ROD [4]: 0.70
- IC50 [4]: 105 ± 7.1 µM
- Phenotype (transformed yeast) (% cell growth) ([4]; SQV at 1mM): 82.0+/-7.1%
- IC50 [5]: 554.1 ± 3.9 µM
- IC50mutant/IC50ROD [5]: 3.7
- Phenotype (virus production) [6]: S
- IC50isolate/IC50ROD ([7]; MRT-7): 0.46
- IC50 [7]: 68.9 ± 6.2 µM
- Phenotype (transformed yeast) (% cell growth) ([7]; SQV at 1mM): 98.0+/-6%
- IC50isolate/IC50ROD [8]: 0.79
- IC50 [8]: 118 ± 6.3 µM
- Phenotype (transformed yeast) (% cell growth) ([8]; SQV at 1mM): 78.0+/-3.0%
- IC50isolate/IC50ROD ([9]; MRT-8): 4.2 and 4.23
- IC50 [9]: 553.9 ± 4.2 µM
- Phenotype (transformed yeast) (% cell growth) ([9]; SQV at 1mM, 1000 µM): 55% and 55.0+/-6.3%
- Phenotype (virus production) [10]: R [9]
- Phenotype (virus production) [16]: R [10]
- IC50isolate/IC50ROD [11]: 1.02
- IC50 [11]: 153 ± 3 µM
- Phenotype (transformed yeast) (% cell growth) ([11]; SQV at 1mM): 72.0+/-3.0%
- growth on galactose plates (lethal phenotype) ([12]; SQV at 200 μM, 2 days at 30°C): the lethal phenotype was no longer observed
- IC50isolate/IC50ROD ([13]; MRT-1): 1.34
- IC50 [13]: 200 ± 5.1 µM
- Phenotype (transformed yeast) (% cell growth) ([13]; SQV at 1mM): 71.0+/-5%
- IC50 [14]: 48.5 ± 4.7 µM
- Phenotype (transformed yeast) (% cell growth) ([14]; SQV at 1mM): 100.0+/-9.4%
- IC50 [15]: 147 ± 5.1 µM
- IC50mutant/IC50ROD [15]: 0.98
